ChEMBL document CHEMBL1201862, “PubChem BioAssay data set” (2004)
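Where inhibition never reached the appropriate level, the endpoint shown equals the highest concentration tested. Otherwise, values were interpolated linearly from a five-concentration, 48-hour dose response in 96-well plates. Here, GI50 denotes the concentration required for 50% inhibition of growth.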 Activity calls are given as the source filed them. No stated cut-off is given here; in the data, active = GI50 up to about 1.1 µM and inactive = higher.

Experiments:
Test in all cases: inhibition of tumour cell growth, NCI panel, 48 h
[1] = tested on: A549
[2] = tested on: K562
[3] = tested on: SK-OV-3
[4] = tested on: RXF 393
[5] = tested on: HCC 2998
[6] = tested on: IGROV-1
[7] = tested on: UO-31
[8] = tested on: SK-MEL-5
[9] = tested on: SNB-75
[10] = tested on: M14
[11] = tested on: MOLT-4
[12] = tested on: COLO 205
[13] = tested on: MDA-MB-231
[14] = tested on: DU-145
[15] = tested on: NCI-H460
[16] = tested on: OVCAR-4
[17] = tested on: NCI-H226
[18] = tested on: UACC-62
[19] = tested on: HL-60
[20] = tested on: OVCAR-3
[21] = tested on: NCI-H23
[22] = tested on: NCI-H522
[23] = tested on: SF-295
[24] = tested on: HCT-15
[25] = tested on: TK-10
[26] = tested on: HCT-116
[27] = tested on: SR
[28] = tested on: SNB-19
[29] = tested on: PC-3
[30] = tested on: SF-539
[31] = tested on: A498
[32] = tested on: U-251
[33] = tested on: Malme-3M
[34] = tested on: HT-29
[35] = tested on: SN12C
[36] = tested on: SK-MEL-2
[37] = tested on: T47D
[38] = tested on: SK-MEL-28
[39] = tested on: KM12
[40] = tested on: NCI/ADR-RES
[41] = tested on: SW-620
[42] = tested on: ACHN
[43] = tested on: Hs-578T
[44] = tested on: EKVX
[45] = tested on: CAKI-1
[46] = tested on: HOP-92
[47] = tested on: MDA-N
[48] = tested on: HOP-62
[49] = tested on: MDA-MB-435
[50] = tested on: UACC-257
[51] = tested on: CCRF-CEM
[52] = tested on: LOX IMVI
[53] = tested on: MCF7
[54] = tested on: RPMI-8226
[55] = tested on: 786-0
[56] = tested on: BT-549
[57] = tested on: SF-268
[58] = tested on: OVCAR-5
[59] = tested on: OVCAR-8

Which GI50 [1] does the source give for CCCCCCCCCCCC(=O)NCc1ccc(OC(=O)CCCCCCCCCCC)c(OC)c1 here?
Its GI50 is > 100 µM (inactive).

And the GI50 [2]?
The GI50 was > 83 µM (inactive).

And the GI50 [3]?
Its GI50 is > 100 µM (inactive).

And the GI50 [4]?
The GI50 was > 100 µM (inactive).

What about the GI50 [5] of the same compound?
Its GI50 is > 64.6 µM (inactive).

And the GI50 [6]?
Its GI50 is 4.21 µM (inactive).

What about the GI50 [7] of the same compound?
The GI50 was > 70 µM (inactive).

And the GI50 [8]?
The GI50 was > 63 µM (inactive).

And the GI50 [9]?
The GI50 was > 100 µM (inactive).

What about the GI50 [10] of the same compound?
Its GI50 is 32.7 µM (inactive).

What about the GI50 [11] of the same compound?
The GI50 was 2.75 µM (inactive).

And the GI50 [12]?
The GI50 was 35.6 µM (inactive).

What about the GI50 [13] of the same compound?
The GI50 was > 100 µM (inactive).

What about the GI50 [14] of the same compound?
The GI50 was > 79.3 µM (inactive).

What about the GI50 [15] of the same compound?
The GI50 was > 100 µM (inactive).

And the GI50 [16]?
Its GI50 is 34.2 µM (inactive).

What about the GI50 [17] of the same compound?
The GI50 was > 100 µM (inactive).

And the GI50 [18]?
The GI50 was > 96.4 µM (inactive).

And the GI50 [19]?
Its GI50 is 6.07 µM (inactive).

What about the GI50 [20] of the same compound?
The GI50 was 31.9 µM (inactive).

What about the GI50 [21] of the same compound?
Its GI50 is 32.8 µM (inactive).

And the GI50 [22]?
Its GI50 is 2.63 µM (inactive).

What about the GI50 [23] of the same compound?
Its GI50 is > 66.4 µM (inactive).

And the GI50 [24]?
Its GI50 is > 100 µM.

And the GI50 [25]?
Its GI50 is > 100 µM (inactive).

What about the GI50 [26] of the same compound?
Its GI50 is 65.2 µM (inactive).

What about the GI50 [27] of the same compound?
The GI50 was 11.1 µM (inactive).

And the GI50 [28]?
Its GI50 is > 100 µM (inactive).

What about the GI50 [29] of the same compound?
The GI50 was 15.1 µM (inactive).

And the GI50 [30]?
The GI50 was 3.56 µM (inactive).

And the GI50 [31]?
Its GI50 is > 100 µM (inactive).

What about the GI50 [32] of the same compound?
Its GI50 is > 100 µM (inactive).

What about the GI50 [33] of the same compound?
Its GI50 is > 100 µM (inactive).

What about the GI50 [34] of the same compound?
Its GI50 is 37.8 µM (inactive).

And the GI50 [35]?
Its GI50 is > 88.3 µM (inactive).

And the GI50 [36]?
The GI50 was > 82.8 µM (inactive).

What about the GI50 [37] of the same compound?
The GI50 was 32.2 µM (inactive).

What about the GI50 [38] of the same compound?
The GI50 was > 81.7 µM (inactive).

And the GI50 [39]?
Its GI50 is 24.3 µM (inactive).

What about the GI50 [40] of the same compound?
Its GI50 is > 100 µM (inactive).

And the GI50 [41]?
The GI50 was > 100 µM (inactive).

And the GI50 [42]?
The GI50 was > 100 µM (inactive).

What about the GI50 [43] of the same compound?
The GI50 was 56.4 µM (inactive).

And the GI50 [44]?
The GI50 was > 100 µM (inactive).

What about the GI50 [45] of the same compound?
The GI50 was > 100 µM (inactive).

And the GI50 [46]?
The GI50 was > 100 µM (inactive).

And the GI50 [47]?
Its GI50 is 61.4 µM (inactive).

And the GI50 [48]?
The GI50 was > 100 µM (inactive).

What about the GI50 [49] of the same compound?
Its GI50 is > 75.2 µM (inactive).

What about the GI50 [50] of the same compound?
The GI50 was > 100 µM (inactive).

What about the GI50 [51] of the same compound?
The GI50 was 1.34 µM (inactive).

And the GI50 [52]?
Its GI50 is 5.42 µM (inactive).

What about the GI50 [53] of the same compound?
The GI50 was 35.3 µM (inactive).

And the GI50 [54]?
Its GI50 is 33.5 µM (inactive).

What about the GI50 [55] of the same compound?
Its GI50 is > 100 µM (inactive).

And the GI50 [56]?
The GI50 was > 100 µM (inactive).

What about the GI50 [57] of the same compound?
Its GI50 is > 54.1 µM (inactive).

And the GI50 [58]?
Its GI50 is > 100 µM (inactive).

What about the GI50 [59] of the same compound?
Its GI50 is 67.9 µM (inactive).

With CCOC(=O)C(SCCO)C(C(=O)OCC)n1cnc2c(N)ncnc21 (stereo not drawn) as the compound, how does the GI50 [1] read?
Its GI50 is 44.3 µM (inactive).

And the GI50 [2]?
Its GI50 is 3.66 µM (inactive).

What about the GI50 [3] of the same compound?
Its GI50 is 54.7 µM (inactive).

What about the GI50 [4] of the same compound?
Its GI50 is 14.6 µM (inactive).

What about the GI50 [5] of the same compound?
The GI50 was 13.8 µM (inactive).

What about the GI50 [6] of the same compound?
The GI50 was 16.1 µM (inactive).

What about the GI50 [7] of the same compound?
Its GI50 is 20.7 µM (inactive).

And the GI50 [8]?
The GI50 was 23.1 µM (inactive).

And the GI50 [9]?
Its GI50 is 12.1 µM (inactive).

And the GI50 [10]?
The GI50 was 5.07 µM (inactive).

What about the GI50 [11] of the same compound?
Its GI50 is 4.78 µM (inactive).

And the GI50 [12]?
Its GI50 is 6.03 µM (inactive).

What about the GI50 [13] of the same compound?
Its GI50 is 15.5 µM (inactive).

And the GI50 [14]?
Its GI50 is > 67.3 µM (inactive).

What about the GI50 [15] of the same compound?
Its GI50 is 12.4 µM (inactive).

And the GI50 [16]?
Its GI50 is 18.7 µM (inactive).

And the GI50 [17]?
The GI50 was 11.1 µM (inactive).

What about the GI50 [18] of the same compound?
Its GI50 is 12.3 µM (inactive).

And the GI50 [19]?
The GI50 was 2 µM (inactive).

What about the GI50 [20] of the same compound?
The GI50 was 12.7 µM (inactive).

And the GI50 [21]?
The GI50 was 14.8 µM (inactive).

What about the GI50 [22] of the same compound?
Its GI50 is 3.46 µM (inactive).

And the GI50 [23]?
Its GI50 is 40.2 µM (inactive).

And the GI50 [24]?
The GI50 was 6.27 µM.

What about the GI50 [25] of the same compound?
The GI50 was 15 µM (inactive).

What about the GI50 [26] of the same compound?
The GI50 was 8.95 µM (inactive).

And the GI50 [27]?
The GI50 was 4.63 µM (inactive).

And the GI50 [28]?
The GI50 was 28.5 µM (inactive).

And the GI50 [29]?
The GI50 was 6.05 µM (inactive).

What about the GI50 [30] of the same compound?
The GI50 was 16.3 µM (inactive).

And the GI50 [31]?
The GI50 was 14.9 µM (inactive).

What about the GI50 [32] of the same compound?
Its GI50 is 7.26 µM (inactive).

And the GI50 [33]?
The GI50 was 9.91 µM (inactive).

And the GI50 [34]?
The GI50 was 11 µM (inactive).

And the GI50 [35]?
Its GI50 is 9.98 µM (inactive).

And the GI50 [36]?
The GI50 was 15.8 µM (inactive).

And the GI50 [37]?
Its GI50 is 11.2 µM (inactive).

And the GI50 [38]?
The GI50 was 17.3 µM (inactive).

What about the GI50 [39] of the same compound?
The GI50 was 17.1 µM (inactive).

What about the GI50 [40] of the same compound?
The GI50 was 19.8 µM (inactive).

What about the GI50 [41] of the same compound?
The GI50 was 3.01 µM (inactive).

And the GI50 [42]?
The GI50 was 10.5 µM (inactive).

And the GI50 [43]?
Its GI50 is 17.3 µM (inactive).

What about the GI50 [44] of the same compound?
The GI50 was 16.5 µM (inactive).

And the GI50 [45]?
The GI50 was 4.31 µM (inactive).

And the GI50 [46]?
The GI50 was 2.47 µM (inactive).

And the GI50 [47]?
The GI50 was 15.8 µM (inactive).

What about the GI50 [48] of the same compound?
The GI50 was 21.7 µM (inactive).

And the GI50 [49]?
The GI50 was 13.6 µM (inactive).

And the GI50 [50]?
The GI50 was 35.1 µM (inactive).

What about the GI50 [51] of the same compound?
The GI50 was 1.96 µM (inactive).

And the GI50 [52]?
The GI50 was 5.61 µM (inactive).

What about the GI50 [53] of the same compound?
Its GI50 is 5.55 µM (inactive).

And the GI50 [54]?
Its GI50 is 5.04 µM (inactive).

What about the GI50 [55] of the same compound?
The GI50 was 3.03 µM (inactive).

What about the GI50 [56] of the same compound?
The GI50 was 15.3 µM (inactive).

And the GI50 [57]?
Its GI50 is 15.9 µM (inactive).

And the GI50 [58]?
Its GI50 is 7.05 µM (inactive).

And the GI50 [59]?
The GI50 was 13.9 µM (inactive).
